Measured values reported in the pKa sets of Baltruschat and Czodrowski (2020).

Conditions: acidic group

Point of comparison: `[NH3+]CCC(=O)NC(Cc1c[nH]c[nH+]1)C(=O)O` (stereo not given), pKa 2.96. Against it:
- O=C1C=CC(=Nc2ccc(O)cc2)C=C1 — higher, 8.1
- CSc1ncnc2[nH]ncc12 — higher, 9.65
- O=C1Cc2c1ccc(O)c2[N+](=O)[O-] — higher, 3.98
- CC[NH+](CC)Cc1cccc(F)c1O — higher, 7.26
- CCOC(=O)CC(=O)c1ccc(C)cc1 — higher, 10.7
- CC(=O)c1cc(C(C)=O)[nH]n1 — higher, 8.98
- CC(C)(C(=O)O)C(C(N)=O)c1ccccc1 (stereo not given) — higher, 4.8
- Cc1ccc(C(=O)/C=C/C(=O)O)cc1 — higher, 3.44
- O=C(CC(=O)C(F)(F)F)c1ccccc1 — higher, 6.3
- Fc1ccc(NC(=S)c2ccc(Cl)cc2)cc1 — higher, 10.4
- O=C1CCC(O)=C1O — higher, 4.8
- Cc1cc(O)cc(C)c1C#N — higher, 8.21
- CCCCS — higher, 10.8
- O=C(O)c1cc(Br)cs1 — within 0.2 log units, 3.11
- c1ccc(-c2nn[nH]n2)cc1 — higher, 4.53
- Cc1cc(C(=O)O)ccc1O — higher, 4.68
- Oc1cccc2c1-c1c(O)cccc1-2 — higher, 8.16
- N#Cc1ccc(O)cc1 — higher, 7.89
- CCCCCC(=O)NO — higher, 9.58
- CCOC(=O)COc1ccc(Cc2ccc(O)c(C[NH3+])c2)c(Cl)c1Cl — higher, 8.73
- C[n+]1ccc2cc(O)ccc2c1 — higher, 6.06
- [S-]c1nc(S)c2[nH]cnc2n1 — higher, 9.97
- O=C(O)[C@H]1CC[C@H](O)CC1 — higher, 4.68
- Nc1nc2[nH]cnc2c(O)[nH+]1 — within 0.2 log units, 3
- O=[N+]([O-])c1ccccc1-c1nnn[nH]1 — within 0.2 log units, 2.98
- O=[N+]([O-])CSc1ccccc1 — higher, 6.67
- Cc1ccccc1NCCS — higher, 9.6
- CC(C)=NNS(C)(=O)=O — higher, 8.5
- [NH3+]CCC(=O)N[C@@H](Cc1c[nH]c[nH+]1)C(=O)O — lower, 2.7
- O=[N+]([O-])c1ccc(S(=O)(=O)NCc2ccccc2)cc1 — higher, 10.1
- Oc1ccnc([Se-])[nH+]1 — higher, 7.18
- CC(=O)C(Cc1ccc(C#N)cc1)C(C)=O — higher, 9.69
- NCCc1ccc(O)cc1 — higher, 10.8
- Cc1ccc2nc3ccc(O)cc3nc2c1 — higher, 7.2
- O=C(O)[C@@H]1C[C@@H]1Cl — higher, 4.12
- C[Si](C)(C)CCC(=O)O — higher, 4.91
- O=C(O)C(c1ccc(-c2ccccc2)cc1)C(O)c1ccccc1 (stereo not given) — higher, 4.25
- COc1cccc(OC)c1O — higher, 10.1
- Cc1cccc([NH3+])c1C(=O)O — higher, 3.2
- CC(=O)/C(Cl)=N/O — higher, 7.9
- CC=C=CC(=O)CC(Cc1ccccc1)C(=O)[O-] (stereo not given) — higher, 13.9
- CCC1C(=O)COC1=O (stereo not given) — higher, 4.29
- O=[N+]([O-])c1ccccc1/C=N/O — higher, 10.1
- O=P(O)(O)C([NH2+]Cc1cc[nH+]cc1)c1ccccc1O (stereo not given) — lower, 2.28
- O/N=C/C(Cl)=N\O — higher, 8.24
- O=[N+]([O-])c1ccc(NC=S)cc1 — higher, 10.1
- O=P([O-])(O)c1cn2c([nH+]1)[C@@H](O)[C@H](O)[C@@H](O)[C@@H]2CO — higher, 4.84
- CCOC(=O)COc1ccc(C(=O)c2ccc(O)c(C[NH3+])c2)c(Cl)c1Cl — higher, 6.38
- Cc1n[nH]c(O)c1-c1ccccc1 — higher, 11.4
- CCC1(c2ccccc2)C(=O)NC(=S)NC1=O — higher, 6.3
- CC(C)c1ccc(C(=O)O)cc1 — higher, 4.31
- O=[N+]([O-])c1ccc(S)c([N+](=O)[O-])c1 — higher, 3.4
- O=NCC(=O)c1ccncc1 — higher, 7.8
- NS(=O)(=O)c1ccc(P(=O)([O-])[O-])cc1 — higher, 10
- COC(=O)CC(C)=O — higher, 10.6
- Nc1ccc(S(=O)(=O)Nc2ccc(N)nc2)cc1 — higher, 8.82
- S=CNCc1ccccc1 — higher, 12.3
- Cc1cc(=O)oc2cc(O)ccc12 — higher, 7.8
- O=C(O)[C@@H]1O[C@H](Oc2ccc3[nH+]cccc3c2)[C@@H](O)[C@H](O)[C@H]1O — within 0.2 log units, 3
- O=C(O)Cc1ccc2ccccc2c1 — higher, 4.26
- Cc1cccc(CN(C)C)c1O — higher, 11.1
- ONc1ccccc1 — higher, 10.7
- COc1cc([N+](=O)[O-])ccc1O — higher, 6.83
- Cc1ccc(C(=O)C(=O)O)cc1C — lower, 1.36
- CC(=O)Nc1ccc(S)cc1 — higher, 6.08
- Cc1nnn(CC(=O)O)n1 — lower, 2.23
- O=C1NC(=O)c2c1cccc2[N+](=O)[O-] — higher, 8.8
- C[NH+](C)Cc1ccc(NC(=O)/C=N/O)cc1 — higher, 8.43
- CCCCCCC(=O)O — higher, 4.86
- O=C(O)c1cc(-c2ccccc2)oc(=O)c1 — higher, 3.3
- O=[N+]([O-])c1cccc(-c2ccc(O)cc2)c1 — higher, 9.14
- O=C(O)Cn1ccc2ccccc21 — higher, 3.4
- N#CC(C#N)=NNc1ccc(/N=N/c2ccccc2)cc1 — higher, 7.33
- CCOC(=O)COc1ccc(Oc2ccc(O)c(C[NH3+])c2)c(Cl)c1Cl — higher, 8.55
- [O-]c1ccc(Nc2ccc(O)cc2)cc1 — higher, 10.6
- CN(C)c1cccc2c(S(N)(=O)=O)cccc12 — higher, 9.9
- CCc1cc(C(C)C)c(O)cc1C — higher, 10.9

Same assay, conditions: basic group

Point of comparison: `CNc1nc(C)nc2nc[nH]c12`, pKa 5.08. Against it:
- CCCCCCCCCCN(CC(O)CC)CC(O)CC (stereo not given) — higher, 6.6
- CC(C)(N)C(=O)O — higher, 10.2
- CSc1ncnc2[nH]ncc12 — lower, 1
- CNOC — lower, 4.75
- O=C([O-])[C@@H]1CCCN1 — higher, 10.6
- COc1ccc(Cl)c2cccnc12 — lower, 4.13
- CN(C)CCCCC(=O)Oc1ccccc1 — higher, 10
- CC(C)(C)N1C2CCCC21 (stereo not given) — higher, 9.22
- CNNC — within 0.2 log units, 5.2
- CC(C)CNCC(=O)c1ccc(O)cc1 — higher, 7.74
- Cc1ccnnc1 — lower, 3.22
- N#Cc1ccc(N)cc1 — lower, 1.74
- C=CC(C)(C)N(C)C(C)(C)C — higher, 11.3
- NCCCNCCCN — higher, 10.7
- CCc1ccncc1 — higher, 5.94
- [NH3+]CCCCCc1ccncc1 — higher, 5.99
- CN[C@@H]1[C@@H](C)[C@@H]1[NH2+]C — lower, 3.68
- CC1/C(=N/O)C[C@@H]2N=C(c3ccccc3)O[C@@]13[C@@H]1OC(=O)[C@H](C)[C@H]1CC[C@]23C (stereo not given in full) — lower, 4.7
- c1cnc2c(c1)ccc1ncccc12 — lower, 4
- C=C[C@]1(O)CN2CC[C@H]1C[C@H]2[C@H](O)c1cc([O-])[nH+]c2ccccc12 — higher, 7.65
- Cc1cccc(C)c1NC(=O)CN1CCCCC1 — higher, 7.6
- CCNc1ccc(C)cc1 — higher, 5.72
- Cn1cccnc1=N — higher, 10.8
- Cn1nnnc1N — lower, 1.82
- CC(=O)/C(CN1CCCCC1)=N\[O-] — higher, 10.7
- CCN(CC)CCC#N — higher, 7.62
- COc1cc(OC)c(OC)c(C(=O)N[C@H]2C[C@H]3CC[C@@H](C2)N3Cc2ccccc2)c1 — higher, 8.84
- CN(C)c1cccnc1 — higher, 6.67
- COC(=O)C[C@@H]1[C@@H](C(=O)[O-])NC[C@H]1C(C)O (stereo not given in full) — higher, 9.41
- C[C@H]1[C@@H](N)[C@@H](C)[C@@H]([NH3+])[C@@H](C)[C@H]1N — higher, 6.73
- Cc1ccc2c(c1)C(CC[NH3+])CN2 (stereo not given) — lower, 4.1
- C1CCN(N2CCCCC2)CC1 — higher, 7.09
- Cc1cc(C)c2nccc(NCCC[NH+](C)C)c2c1[N+](=O)[O-] — higher, 6.37
- C[C@@H]1C[C@H](OC(=O)c2ccccc2)CC(C)(C)N1 — higher, 8.97
- [O-]c1ccccn1 — higher, 11.7
- N#Cc1cccnc1 — lower, 1.48
- CN(C)c1ccc2cc3c(ccc4ccccc43)nc2c1 — higher, 7.31
- CC(C)(C)NCCO — higher, 10.1
- C=CCN — higher, 9.74
- Cc1cncc(C)n1 — lower, 2.11
- N#CCCNCCC#N — within 0.2 log units, 5.23
- NCCc1ccc(O)cc1 — higher, 9.45
- CC(=O)SCCN(C)C — higher, 8.27
- Brc1cnc2c(ccc3cc(Br)cnc32)c1 — lower, 3.9
- c1ccc(CSc2ccncc2)cc1 — higher, 5.41
- COC(=O)c1ccccc1N(C)C — higher, 5.55
- CC(C)([NH3+])CN — higher, 6.79
- Oc1ccc(C2NCCS2)cc1 (stereo not given) — higher, 5.5
- CC(C)NCC(=O)[O-] — higher, 10.1
- c1ccc(C2=Nc3ccccc3CO2)cc1 — lower, 3.48
- O=[N+]([O-])c1cc(-c2ccccc2)nnc1NCC[NH+]1CCOCC1 — lower, 0.2
- Nc1cccc2[nH]c(Cc3ccccc3)nc12 — higher, 8.6
- c1ccc2c(c1)N1CC[NH+]2CC1 — lower, 2.5
- CN(c1ccccc1)C1CCCCC1 — higher, 6.35
- O=[N+]([O-])c1ccc(/C=N/c2ncccn2)cc1 — lower, 3.12
- [O-]c1ccnnc1 — higher, 8.68
- CC(=O)N1CCNc2ncnc(C)c21 — within 0.2 log units, 5.26
- Cc1ccccc1/N=C/N(C)C — higher, 8.27
- Cc1c[nH]cn1 — higher, 7.51
- C[C@@H](Cc1ccccc1)N(C)C — higher, 9.4
- NCCSCC[NH3+] — higher, 8.84
- Cc1ccc2c(c1)CCN2 — within 0.2 log units, 5
- CNc1ncccn1 — lower, 3.82
- CC(=O)N=S(C)C — lower, 3.16
- C1N2CN3CN1C[NH+](C2)C3 — lower, -1.7
- COC(=O)C1CN2CCC1CC2 (stereo not given) — higher, 9.4
- Cc1cc(-c2ccc(N)c(C)c2)ccc1N — lower, 4.64
- Cc1cc2ccccc2nc1C — within 0.2 log units, 4.93
- Nc1ccc(S(=O)(=O)Nc2ccc(N)nc2)cc1 — lower, 4.19
- Nc1ccnc(-c2cc(N)ccn2)c1 — higher, 8.8
- O=C([O-])c1nc[nH]c1C(=O)[O-] — higher, 8.49
- Cc1cccc(CN(C)C)c1O — higher, 8.18
- NCC(N)=S — higher, 7.27
- ONc1ccccc1 — lower, -0.32
- Nc1ccnc2ccc3ncccc3c12 — higher, 7.3
- c1ccc(Nc2nccs2)cc1 — lower, 4.33
- O=[N+]([O-])c1cc(CN2CCCCC2)c([O-])c2ccccc12 — higher, 10.7
- CN(C)CC(Cl)CCl (stereo not given) — higher, 7.5
- CCc1ccc(OC)c(C(=O)NC[C@H]2CCCN2CC)c1[O-] — higher, 9.54
- Nc1ccccc1Cl — lower, 2.64
- C[Si](C)(C)OC1CN(Cc2ccc(Cl)cc2)C1 — higher, 7.72
- [NH3+]c1cccc(-c2nc3ccccc3s2)c1 — lower, 0.07
- NC(=O)CCc1ccncc1 — higher, 5.58
- CN(C)CCC#N — higher, 7.01
- N[C@H]1CCc2ccccc21 — higher, 9.21
- Cc1ccc(/N=N/c2ccc(N)cc2)cc1 — lower, 3.04
- COc1c(N)cccc1C(=O)N[C@@H]1C[C@H]2CC[C@@H](C1)N2Cc1ccccc1 — higher, 8.86
- N[C@@H]1CCCC[C@@H]1[NH3+] — higher, 6.35
- CC1(N)C[C@]1(C)N (stereo not given in full) — higher, 9.03
- OCCN(CCO)c1ccccc1 — lower, 4.11
- Cc1cc(N)nc2c1ccc1ccccc12 — higher, 6.02
- CCOC(=O)N1CCN(C)CC1 — higher, 7.31
- N#CC(C#N)=NNc1ccc(/N=N/c2ccccc2)cc1 — lower, -0.87
- COc1cc(C#N)cc(C(=O)N[C@@H]2C[C@H]3CC[C@@H](C2)N3Cc2ccccc2)c1OC — higher, 8.7
- CN(C)c1cccc2c(S(N)(=O)=O)cccc12 — lower, 3.8
- Nc1cccc2ncncc12 — lower, 3.57
